Data as given in PubChem BioAssay (NCI).
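How tested: cells in 96-well plates exposed to compound for 48 hours at five concentrations. GI50 = concentration required for 50% inhibition of growth. TGI marks complete inhibition of growth.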

Experiments:
Experiment in all cases: DTP human tumour cell line panel, 48 h
[1] = system: 786-0 renal
[2] = system: A498 renal
[3] = system: A549 NSCLC
[4] = system: ACHN renal
[5] = system: BT-549 breast
[6] = system: CAKI-1 renal
[7] = system: CCRF-CEM leukemia
[8] = system: COLO 205 colon
[9] = system: DU-145 prostate
[10] = system: EKVX NSCLC
[11] = system: HCC-2998 colon
[12] = system: HCT-116 colon
[13] = system: HCT-15 colon
[14] = system: HL-60(TB) leukemia
[15] = system: HOP-62 NSCLC
[16] = system: HOP-92 NSCLC
[17] = system: HS 578T breast
[18] = system: HT29 colon
[19] = system: IGROV1 ovarian
[20] = system: K-562 leukemia
[21] = system: KM12 colon
[22] = system: LOX IMVI melanoma
[23] = system: M14 melanoma
[24] = system: MALME-3M melanoma
[25] = system: MCF7 breast
[26] = system: MDA-MB-231 breast
[27] = system: MDA-MB-435
[28] = system: MDA-MB-468 breast
[29] = system: MOLT-4 leukemia
[30] = system: NCI-H226 lung
[31] = system: NCI-H23 lung
[32] = system: NCI-H460 lung
[33] = system: NCI-H522 lung
[34] = system: NCI/ADR-RES ovarian
[35] = system: OVCAR-3 ovarian
[36] = system: OVCAR-4 ovarian
[37] = system: OVCAR-5 ovarian
[38] = system: OVCAR-8 ovarian
[39] = system: PC-3 prostate
[40] = system: RPMI-8226 leukemia
[41] = system: RXF 393 renal
[42] = system: SF-268 CNS
[43] = system: SF-295 CNS
[44] = system: SF-539 CNS
[45] = system: SK-MEL-2 melanoma
[46] = system: SK-MEL-28 melanoma
[47] = system: SK-MEL-5 melanoma
[48] = system: SK-OV-3 ovarian
[49] = system: SN12C renal
[50] = system: SNB-19 CNS
[51] = system: SNB-75 CNS
[52] = system: SR leukemia
[53] = system: SW-620 colon
[54] = system: T-47D breast
[55] = system: TK-10 renal
[56] = system: U251 CNS
[57] = system: UACC-257 melanoma
[58] = system: UACC-62 melanoma
[59] = system: UO-31 renal

`COCOc1cc2c(=O)c(C)c(C(=O)N[C@@H](Cc3ccccc3)C(O)C(=O)NCc3ccccc3)oc2cc1OC` (stereo partly drawn) gave a GI50 [1] greater than 100 µM, a TGI [1] greater than 100 µM and a GI50 [2] greater than 100 µM. The TGI [2] was greater than 100 µM, the GI50 [3] was greater than 100 µM and the TGI [3] was greater than 100 µM. For the same compound, the GI50 [4] was greater than 100 µM, the TGI [4] was greater than 100 µM and the GI50 [5] was greater than 100 µM. It also gave a TGI [5] greater than 100 µM, a GI50 [6] greater than 100 µM and a TGI [6] greater than 100 µM. It also gave a GI50 [7] greater than 100 µM, a TGI [7] greater than 100 µM and a GI50 [8] greater than 100 µM. For the same compound, the TGI [8] was greater than 100 µM, the GI50 [9] was greater than 100 µM and the TGI [9] was greater than 100 µM. The GI50 [10] was greater than 100 µM, the TGI [10] was greater than 100 µM and the GI50 [11] was greater than 100 µM. For the same compound, the TGI [11] was greater than 100 µM, the GI50 [12] was greater than 100 µM and the TGI [12] was greater than 100 µM. The GI50 [13] was greater than 100 µM, the TGI [13] was greater than 100 µM and the GI50 [14] was greater than 100 µM. It also gave a TGI [14] greater than 100 µM, a GI50 [15] greater than 100 µM and a TGI [15] greater than 100 µM. For the same compound, the GI50 [16] was greater than 100 µM, the TGI [16] was greater than 100 µM and the GI50 [17] was greater than 100 µM. For the same compound, the TGI [17] was greater than 100 µM, the GI50 [18] was greater than 100 µM and the TGI [18] was greater than 100 µM. For the same compound, the GI50 [19] was greater than 100 µM, the TGI [19] was greater than 100 µM and the GI50 [20] was greater than 100 µM. For the same compound, the TGI [20] was greater than 100 µM, the GI50 [21] was greater than 100 µM and the TGI [21] was greater than 100 µM. It also gave a GI50 [22] greater than 100 µM, a TGI [22] greater than 100 µM and a GI50 [23] of 62.5 µM. It also gave a TGI [23] greater than 100 µM, a GI50 [24] greater than 100 µM and a TGI [24] greater than 100 µM. For the same compound, the GI50 [25] was greater than 100 µM, the TGI [25] was greater than 100 µM and the GI50 [26] was greater than 100 µM. The TGI [26] was greater than 100 µM, the GI50 [27] was greater than 100 µM and the TGI [27] was greater than 100 µM. The GI50 [28] was greater than 100 µM, the TGI [28] was greater than 100 µM and the GI50 [29] was greater than 100 µM. The TGI [29] was greater than 100 µM, the GI50 [30] was greater than 100 µM and the TGI [30] was greater than 100 µM. It also gave a GI50 [31] greater than 100 µM, a TGI [31] greater than 100 µM and a GI50 [32] greater than 100 µM. The TGI [32] was greater than 100 µM, the GI50 [33] was greater than 100 µM and the TGI [33] was greater than 100 µM. It also gave a GI50 [34] greater than 100 µM, a TGI [34] greater than 100 µM and a GI50 [35] greater than 100 µM. The TGI [35] was greater than 100 µM, the GI50 [36] was greater than 100 µM and the TGI [36] was greater than 100 µM. For the same compound, the GI50 [37] was greater than 100 µM, the TGI [37] was greater than 100 µM and the GI50 [38] was greater than 100 µM. For the same compound, the TGI [38] was greater than 100 µM, the GI50 [39] was greater than 100 µM and the TGI [39] was greater than 100 µM. It also gave a GI50 [40] greater than 100 µM, a TGI [40] greater than 100 µM and a GI50 [41] greater than 100 µM. The TGI [41] was greater than 100 µM, the GI50 [42] was greater than 100 µM and the TGI [42] was greater than 100 µM. It also gave a GI50 [43] greater than 100 µM, a TGI [43] greater than 100 µM and a GI50 [44] of 38.3 µM. The TGI [44] was greater than 100 µM, the GI50 [45] was greater than 100 µM and the TGI [45] was greater than 100 µM. The GI50 [46] was greater than 100 µM, the TGI [46] was greater than 100 µM and the GI50 [47] was greater than 100 µM. For the same compound, the TGI [47] was greater than 100 µM, the GI50 [48] was greater than 100 µM and the TGI [48] was greater than 100 µM. It also gave a GI50 [49] greater than 100 µM, a TGI [49] greater than 100 µM and a GI50 [50] greater than 100 µM. For the same compound, the TGI [50] was greater than 100 µM, the GI50 [51] was 96.7 µM and the TGI [51] was greater than 100 µM. The GI50 [52] was greater than 100 µM, the TGI [52] was greater than 100 µM and the GI50 [53] was greater than 100 µM. The TGI [53] was greater than 100 µM, the GI50 [54] was greater than 100 µM and the TGI [54] was greater than 100 µM. The GI50 [55] was greater than 100 µM, the TGI [55] was greater than 100 µM and the GI50 [56] was greater than 100 µM. The TGI [56] was greater than 100 µM, the GI50 [57] was greater than 100 µM and the TGI [57] was greater than 100 µM. It also gave a GI50 [58] greater than 100 µM, a TGI [58] greater than 100 µM and a GI50 [59] greater than 100 µM. For the same compound, the TGI [59] was greater than 100 µM.
